Assay: Inhibition of ROCK

| SMILES | pIC50 |
| --- | --- |
| Clc1ccc(CN2CCC(Nc3cccc4cnccc34)C2)cc1 (stereo not drawn) | 7.19 |
| CCCN1CCC(Nc2cccc3cnccc23)CC1 | 6.46 |
| O=C(Nc1ccc2[nH]ncc2c1)C1CCCCC1 | 6.3 |
| Fc1cc2[nH]ncc2cc1NC1CCCN(Cc2ccccc2)C1 (stereo not drawn) | 6.4 |
| O=C(NCc1ccccc1)Nc1ccc2[nH]ncc2c1 | 6.59 |
| Fc1ccc(CN2CCC(Nc3cccc4cnccc34)C2)cc1 (stereo not drawn) | 7.02 |
| CC(C)CCCN1CCCC(Nc2cccc3cnccc23)C1 (stereo not drawn) | 7 |
| O=C(NCc1ccc(Cl)cc1Cl)Nc1ccc2[nH]ncc2c1 | 6.66 |
| O=C(COc1c(Cl)cc(F)cc1Cl)Nc1ccc2[nH]ncc2c1 | 6.3 |
| CCCN[C@H]1CC[C@@H](Nc2cccc3cnccc23)CC1 | 6.74 |
| Clc1cccc(CN2CCC(Nc3cccc4cnccc34)C2)c1 (stereo not drawn) | 7.19 |
| c1ccc(CN2CCC(Nc3cccc4cnccc34)CC2)cc1 | 6.85 |
| c1ccc(CN2CCCC(Nc3cccc4cnccc34)C2)cc1 (stereo not drawn) | 6.7 |
| O=C(NCc1c(F)cccc1F)Nc1ccc2[nH]ncc2c1 | 7.07 |
| CC(C)CCN1CCCC(Nc2cccc3cnccc23)C1 (stereo not drawn) | 6.57 |
| c1ccc(CCN[C@H]2CC[C@H](Nc3cccc4cnccc34)CC2)cc1 | 6.39 |
| CC(C)CN1CCC(Nc2cccc3cnccc23)CC1 | 6.68 |
| O=C(CC1CCCCC1)Nc1ccc2[nH]ncc2c1 | 6.05 |

| SMILES | pIC50 |
| --- | --- |
| CC(C)CCN1CCCC(Nc2ccc3[nH]ncc3c2)C1 (stereo not drawn) | 6.47 |
| CNC1CCC(Nc2cccc3cnccc23)CC1 (stereo not drawn) | 6.7 |
| Fc1cccc(F)c1CN1CCC(Nc2cccc3cnccc23)C1 (stereo not drawn) | 7.12 |
| c1cc(N[C@H]2CC[C@H](NC3CC3)CC2)c2ccncc2c1 | 7.15 |
| O=C(COc1c(Cl)cccc1Cl)Nc1ccc2[nH]ncc2c1 | 6 |
| CN(CCNc1ccc2[nH]ncc2c1)Cc1ccccc1 | 5.1 |
| O=C(NCc1c(Cl)cccc1Cl)Nc1ccc2[nH]ncc2c1 | 7.7 |
| c1cc2[nH]ncc2cc1NC1CCNC1 (stereo not drawn) | 7 |
| Nc1ccc(CN2CCC(Nc3cccc4cnccc34)C2)cc1 (stereo not drawn) | 6.63 |
| COc1cc(CN2CCCC(Nc3ccc4[nH]ncc4c3)C2)cc(OC)c1 (stereo not drawn) | 7.1 |
| c1ccc(CCN[C@H]2CC[C@@H](Nc3cccc4cnccc34)CC2)cc1 | 6.24 |
| Nc1ccccc1CN1CCC(Nc2cccc3cnccc23)C1 (stereo not drawn) | 6.69 |
| Clc1cccc(CN2CCCC(Nc3cccc4cnccc34)C2)c1 (stereo not drawn) | 6.58 |
| c1cc(N[C@H]2CC[C@@H](NC3CC3)CC2)c2ccncc2c1 | 6.74 |
| Nc1cccc(CN2CCC(Nc3cccc4cnccc34)C2)c1 (stereo not drawn) | 6.56 |
| CCCN[C@H]1CC[C@H](Nc2cccc3cnccc23)CC1 | 6.74 |
| CCCN1CCCC(Nc2ccc3[nH]ncc3c2)C1 (stereo not drawn) | 6.11 |

Second part, the compound after the results:

| pIC50 | SMILES |
| --- | --- |
| 6.74 | c1coc(CN2CCCC(Nc3ccc4[nH]ncc4c3)C2)c1 (stereo not drawn) |
| 7.89 | Clc1ccccc1CN1CCCC(Nc2ccc3[nH]ncc3c2)C1 (stereo not drawn) |
| 7.72 | Clc1cccc(CN2CCCC(Nc3ccc4[nH]ncc4c3)C2)c1 (stereo not drawn) |
| 7.46 | Nc1cccc(CN2CCCC(Nc3ccc4[nH]ncc4c3)C2)c1 (stereo not drawn) |
| 7 | c1ccc(CN2CCC(Oc3ccc4[nH]ncc4c3)CC2)cc1 |
| 6.52 | c1cc2[nH]ncc2cc1NC1CCNCC1 |
| 6.27 | O=C(NC1CCN(Cc2ccccc2)CC1)c1ccc2[nH]ncc2c1 |
| 8 | Nc1ccc(CN2CCCC(Nc3ccc4[nH]ncc4c3)C2)cc1 (stereo not drawn) |
| 6.15 | CCN1CCC(Nc2ccc3[nH]ncc3c2)CC1 |
| 7.6 | Fc1ccc(CN2CCCC(Nc3ccc4[nH]ncc4c3)C2)cc1 (stereo not drawn) |
| 7.35 | Clc1ccccc1CN1CCC(Nc2ccc3[nH]ncc3c2)C1 (stereo not drawn) |
| 8 | Fc1ccc(CN2CCCC(Nc3ccc4[nH]ncc4c3)C2)cc1F (stereo not drawn) |
| 8 | c1ccc(CN2CCCC(Oc3ccc4[nH]ncc4c3)C2)cc1 (stereo not drawn) |
| 6.54 | Clc1cccc(CN2CCC(Nc3ccc4[nH]ncc4c3)CC2)c1 |
| 7.8 | COc1ccc(CN2CCCC(Nc3ccc4[nH]ncc4c3)C2)cc1 (stereo not drawn) |
| 8.05 | Cc1ccc(CN2CCCC(Nc3ccc4[nH]ncc4c3)C2)cc1 (stereo not drawn) |
| 6.36 | Clc1ccccc1CN1CCC(Nc2ccc3[nH]ncc3c2)CC1 |

| pIC50 | SMILES |
| --- | --- |
| 7.96 | Clc1ccc(CN2CCCC(Nc3ccc4[nH]ncc4c3)C2)cc1 (stereo not drawn) |
| 7.07 | Nc1ccccc1CN1CCCC(Nc2ccc3[nH]ncc3c2)C1 (stereo not drawn) |
| 7.14 | c1cncc(CN2CCCC(Nc3ccc4[nH]ncc4c3)C2)c1 (stereo not drawn) |
| 7.7 | c1ccc(CN2CCCC(Nc3ccc4[nH]ncc4c3)C2)cc1 (stereo not drawn) |
| 6.68 | Clc1ccccc1CN1CCCC(Nc2cccc3cnccc23)C1 (stereo not drawn) |
| 6.87 | O=C(Nc1ccc2[nH]ncc2c1)C1CCN(Cc2ccccc2)CC1 |
| 6.28 | c1ccc(CN[C@H]2CC[C@H](Nc3ccc4[nH]ncc4c3)CC2)cc1 |
| 6.54 | Clc1ccc(CN2CCC(Nc3ccc4[nH]ncc4c3)CC2)cc1 |
| 7.49 | c1ccc(CN2CCC(Nc3ccc4[nH]ncc4c3)C2)cc1 (stereo not drawn) |
| 7.96 | c1c[nH]c(CN2CCCC(Nc3ccc4[nH]ncc4c3)C2)c1 (stereo not drawn) |
| 7 | Clc1ccccc1CN1CCC(Nc2cccc3cnccc23)C1 (stereo not drawn) |
| 7.06 | O=[N+]([O-])c1ccc(CN2CCCC(Nc3ccc4[nH]ncc4c3)C2)cc1 (stereo not drawn) |
| 6.49 | c1ccc(CN[C@H]2CC[C@@H](Nc3ccc4[nH]ncc4c3)CC2)cc1 |
| 6.82 | Cc1n[nH]c2ccc(NC3CCCN(Cc4ccccc4)C3)cc12 (stereo not drawn) |
| 7.74 | O=C(Nc1ccc2[nH]ncc2c1)C1CCCN(Cc2ccccc2)C1 (stereo not drawn) |
| 6.62 | c1ccc(CN2CCCC(Nc3ccc4[nH]ncc4c3)C2)nc1 (stereo not drawn) |

— ChEMBL document CHEMBL1177844 (Eur J Med Chem, 2010)
